Test results published in publication PMC2956102 (International Journal of Molecular Sciences, 2010).
Like-named read-outs stand apart in the source and are kept apart here.

Tests used:
[1] = molecular target: intestinal maltase; assay: Intestinal α-glucosidase (maltase) inhibition assay, rat intestinal acetone powder; assay type: biochemical; settings: for IC50: 37 mM maltose, pH 6.9, 37 °C, 30 min, means ± S.E.M., n = 3
Protocol: (§1) The assessment of α-glucosidase inhibitory activity was performed according to our previous report. Briefly, 100 mg of rat intestinal acetone powder was homogenized in 3 mL of 0.9% NaCl solution. After centrifugation (12,000 g × 30 min), 10 μL of the supernatant (maltase = 0.68 units/mg protein, sucrase = 0.10 units/mg protein) was incubated with 70 μL of substrate solution (37 mM maltose, 54 mM sucrose), and 20 μL of sample at various concentrations in 0.1 M phosphate buffer pH 6.9 at 37 °C for 30 min (maltase assay) and 60 min (sucrase assay). The mixtures were suspended in boiling water for 10 min to stop the reaction. The concentrations of glucose released from the reaction mixtures were determined by glucose oxidase method. Acarbose was used as a positive control for this assay.
(§2) The reaction was performed according to the above assay (α-glucosidase and pancreatic α-amylase). Results were expressed as a percentage inhibition of the corresponding control values.

[2] = cited from earlier work
[3] = molecular target: T1, intestinal sucrase (Rattus norvegicus, UniProt P23739); assay: Intestinal α-glucosidase (sucrase) inhibition assay, rat intestinal acetone powder; assay type: biochemical; settings: for Percentage intestinal sucrase inhibition in combination with acarbose, compared with acarbose alone: 1 μM compound + 3.12 μM acarbose, Figure 3; for IC50: 54 mM sucrose, pH 6.9, 37 °C, 60 min, means ± S.E.M., n = 3
T1 construct: 100 mg of rat intestinal acetone powder was homogenized in 3 mL of 0.9% NaCl solution; tissue Sigma Chemical Co. Ltd. (St. Louis, MO); host or cells: rat intestine (acetone powder, supernatant of the saline homogenate)
T1 sequence (P23739 1014-1841 limits assumed): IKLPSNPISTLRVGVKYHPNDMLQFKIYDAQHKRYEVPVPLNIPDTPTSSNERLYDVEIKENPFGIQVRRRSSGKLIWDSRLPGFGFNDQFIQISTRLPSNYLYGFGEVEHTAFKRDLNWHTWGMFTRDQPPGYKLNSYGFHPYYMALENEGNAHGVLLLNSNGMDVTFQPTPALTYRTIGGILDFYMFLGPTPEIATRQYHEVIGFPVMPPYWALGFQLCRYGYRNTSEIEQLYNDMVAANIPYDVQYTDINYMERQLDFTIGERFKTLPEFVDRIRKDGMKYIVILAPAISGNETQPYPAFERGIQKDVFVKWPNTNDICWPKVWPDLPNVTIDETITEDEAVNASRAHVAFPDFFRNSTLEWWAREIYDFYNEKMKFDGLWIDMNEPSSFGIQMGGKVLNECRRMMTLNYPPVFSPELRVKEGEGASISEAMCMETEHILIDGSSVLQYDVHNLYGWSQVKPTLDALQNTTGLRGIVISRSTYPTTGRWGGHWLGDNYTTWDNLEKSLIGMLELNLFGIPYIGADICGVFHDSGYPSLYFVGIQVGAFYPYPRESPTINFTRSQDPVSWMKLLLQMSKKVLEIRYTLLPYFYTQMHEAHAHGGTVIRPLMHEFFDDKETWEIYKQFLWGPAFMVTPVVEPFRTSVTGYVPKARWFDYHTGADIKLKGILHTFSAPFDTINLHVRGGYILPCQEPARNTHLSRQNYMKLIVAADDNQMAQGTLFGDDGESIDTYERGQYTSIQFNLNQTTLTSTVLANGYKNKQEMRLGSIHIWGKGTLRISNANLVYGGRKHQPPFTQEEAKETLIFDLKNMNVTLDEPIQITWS
T1 sequence (P23739 2-1013 partner limits assumed): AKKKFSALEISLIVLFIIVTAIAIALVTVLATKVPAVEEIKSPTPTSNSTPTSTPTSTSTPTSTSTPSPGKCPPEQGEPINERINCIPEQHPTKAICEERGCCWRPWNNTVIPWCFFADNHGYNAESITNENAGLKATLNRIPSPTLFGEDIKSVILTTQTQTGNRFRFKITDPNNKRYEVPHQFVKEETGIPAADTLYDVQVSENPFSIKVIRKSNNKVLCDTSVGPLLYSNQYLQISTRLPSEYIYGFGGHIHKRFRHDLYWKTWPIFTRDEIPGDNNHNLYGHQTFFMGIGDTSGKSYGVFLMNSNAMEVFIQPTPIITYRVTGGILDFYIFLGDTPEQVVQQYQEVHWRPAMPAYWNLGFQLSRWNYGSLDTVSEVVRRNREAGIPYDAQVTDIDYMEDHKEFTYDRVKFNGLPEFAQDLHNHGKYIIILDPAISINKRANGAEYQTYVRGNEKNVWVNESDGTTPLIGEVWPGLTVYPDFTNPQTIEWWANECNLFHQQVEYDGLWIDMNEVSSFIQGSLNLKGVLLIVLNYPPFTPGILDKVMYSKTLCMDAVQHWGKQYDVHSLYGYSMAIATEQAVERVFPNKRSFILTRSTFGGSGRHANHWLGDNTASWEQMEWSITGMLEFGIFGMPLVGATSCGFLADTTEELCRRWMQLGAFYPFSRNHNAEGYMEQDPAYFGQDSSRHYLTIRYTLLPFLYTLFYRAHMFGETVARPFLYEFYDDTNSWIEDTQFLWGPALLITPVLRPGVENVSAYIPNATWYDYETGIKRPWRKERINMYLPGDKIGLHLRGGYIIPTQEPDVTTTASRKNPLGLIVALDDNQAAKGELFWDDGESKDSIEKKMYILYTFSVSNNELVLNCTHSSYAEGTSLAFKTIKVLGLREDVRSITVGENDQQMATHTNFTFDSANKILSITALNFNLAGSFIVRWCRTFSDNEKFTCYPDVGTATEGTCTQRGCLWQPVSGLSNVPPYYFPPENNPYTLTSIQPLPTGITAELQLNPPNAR
Protocol: as §1, with “method.” for “method. Acarbose was used as a positive control for this assay.”
as §2

[4] = molecular target: T2, porcine pancreatic α-amylase (Sus scrofa, UniProt P00690); assay: Pancreatic α-amylase inhibition assay (starch, DNS reagent); assay type: biochemical; settings: for Percentage pancreatic α-amylase inhibition in combination with acarbose, compared with acarbose alone: 1.0 μM compound + 3.12 μM acarbose, Figure 4; for IC50: 1 g/L starch, amylase 3 U/mL, pH 6.9, 10 min, means ± S.E.M., n = 3
T2 construct: purchased Sigma Chemical Co. Ltd. (St. Louis, MO)
T2 sequence (P00690 16-511): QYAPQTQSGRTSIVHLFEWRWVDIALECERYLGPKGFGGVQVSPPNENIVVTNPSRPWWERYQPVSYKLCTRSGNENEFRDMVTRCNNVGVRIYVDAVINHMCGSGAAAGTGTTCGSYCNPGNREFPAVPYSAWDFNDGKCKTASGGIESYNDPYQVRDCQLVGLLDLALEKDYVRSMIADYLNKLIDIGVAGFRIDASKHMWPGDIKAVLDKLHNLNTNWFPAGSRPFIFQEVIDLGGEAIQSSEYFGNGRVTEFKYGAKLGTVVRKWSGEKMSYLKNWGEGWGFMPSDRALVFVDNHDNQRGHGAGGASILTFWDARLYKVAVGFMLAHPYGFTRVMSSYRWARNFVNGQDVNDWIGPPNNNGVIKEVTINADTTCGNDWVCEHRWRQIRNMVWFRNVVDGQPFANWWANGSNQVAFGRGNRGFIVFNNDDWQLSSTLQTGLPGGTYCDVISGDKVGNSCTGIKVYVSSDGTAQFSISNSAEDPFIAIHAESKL
Protocol: The pancreatic α-amylase inhibition assay was performed according to our previous reports. Porcine pancreatic α-amylase was dissolved in 0.1 M phosphate buffer saline, pH 6.9. The various concentrations of test compounds were added to solution containing in 1 g/L starch and phosphate buffer. The reaction was initiated by adding amylase (3 U/mL) to the incubation medium to a final volume of 500 μL. After 10 min, the reaction was stopped by adding 0.5 mL dinitrosalicylic (DNS) reagent (1% 3,5-dinitrosalicylic acid, 0.2% phenol, 0.05% Na2SO3, and 1% NaOH in aqueous solution) to the reaction mixture. The mixtures were heated at 100 °C for 10 min and 500 μL of 40% potassium sodium tartarate solution was added to the mixtures to stabilize the color. After cooling to room temperature in a cold water bath, absorbance was recorded at 540 nm using a spectrophotometer.
as §2

[5] = tested on: pancreatic β-cell line; parameters: method as in PMID 15631504; settings: ref [16]; cited from earlier work
[6] = tested on: 3T3-L1 adipocytes; parameters: method as in PMID 18179781; settings: H2O2- or TNF-α-induced, via inhibition of JNK signal pathway; ref [15]; cited from earlier work
[7] = molecular target: T1, intestinal sucrase; settings: cited from earlier work
[8] = tested on: intestinal α-glucosidase; settings: combination of acarbose and compound; ref [8]; cited from earlier work
[9] = tested on: yeast α-glucosidase; parameters: method as in PMID 15558946; settings: ref [9]; cited from earlier work

Structure (SMILES) | IC50 [1] [µM] | Percentage intestinal sucrase inhibition in combination with acarbose, compared with acarbose alone [3] | IC50 [3] [µM] | Percentage pancreatic α-amylase inhibition in combination with acarbose, compared with acarbose alone [4] | IC50 [4] [µM] | Insulin secretion [5] | Pancreatic α-amylase inhibitory activity [4] | Intestinal sucrase inhibitory activity [3] | other results
C[C@H]1O[C@H](O[C@H]2[C@H](O)[C@@H](O)[C@@H](O[C@H]3[C@H](O)[C@@H](O)C(O)O[C@@H]3CO)O[C@@H]2CO)[C@H](O)[C@@H](O)[C@@H]1N[C@H]1C=C(CO)[C@@H](O)[C@H](O)[C@H]1O (stereo partly drawn) [Acarbose] | 3 ± 1 |  |  |  |  |  |  |  | Reduction in the incidence of diabetes ([2]; acarbose treatment, ref [18]): 25%; Reduction of the postprandial peak of glycemia ([2]; acarbose treatment, ref [19]): 20%; Most common adverse effect ([2]; dose-dependent, flatulence, meteorism and abdominal distention, ref [19]): gastrointestinal disturbance; Duration of the effect on postprandial glycemia ([2]; ref [19]): ≤ 5 h; Dose exceeding the saturated binding of α-glucosidase, no increase in inhibitory effect ([2]; ref [20],[21]): > 300 mg/day; Lowest dose with clinical effects ([2]; ref [20],[21]): 150 mg/day
OC[C@H]1O[C@@H](Oc2cc3c(O)cc(O)cc3[o+]c2-c2ccc(O)c(O)c2)[C@H](O)[C@@H](O)[C@@H]1O [Cyanidin-3-glucoside, cyanidin-3-glucoside chloride] | > 3000 | synergistic effects | 970 ± 50 | significantly increased | 300 ± 10 | directly stimulate insulin secretion |  |  | Action against induced insulin resistance [6]: protective action
OC[C@H]1O[C@@H](Oc2cc3c(O)cc(O)cc3[o+]c2-c2ccc(O)c(O)c2)[C@H](O)[C@@H](O)[C@H]1O [Cyanidin-3-galactoside, cyanidin-3-galactoside chloride] | > 3000 | synergistic effects |  | did not show significant changes | > 1000 | directly stimulate insulin secretion | no inhibitory activity |  | Type of inhibition against intestinal sucrase ([7]; kinetic model, ref [8]): mixed type; IC50 ([7]; previously reported value, ref Adisakwattana et al. [8]): 500 ± 50 µM; Effect of combination with acarbose on intestinal α-glucosidase inhibition [8]: synergistic effect
OC[C@H]1O[C@@H](Oc2cc3c(O[C@@H]4O[C@H](CO)[C@@H](O)[C@H](O)[C@H]4O)cc(O)cc3[o+]c2-c2ccc(O)c(O)c2)[C@H](O)[C@@H](O)[C@@H]1O [Cyanidin-3,5-diglucoside, cyanidin-3,5-diglucoside] | > 3000 | synergistic effects | > 2000 | did not show significant changes | > 1000 |  | no inhibitory activity | inactive | 
Oc1cc(O)c2cc(O)c(-c3ccc(O)c(O)c3)[o+]c2c1 [Cyanidin, Cyanidin chloride] | > 3000 | No change | 1420 ± 250 | significantly increased | 380 ± 10 |  | weak | weak | Percentage intestinal maltase inhibition in combination with acarbose, compared with acarbose alone ([1]; 1 μM compound + 0.05 μM acarbose, Figure 2): No change
C[C@@H]1O[C@@H](OC[C@H]2O[C@@H](Oc3cc4c(O)cc(O)cc4[o+]c3-c3ccc(O)c(O)c3)[C@H](O)[C@@H](O)[C@@H]2O)[C@H](O)[C@H](O)[C@H]1O [cyanidin-3-rutinoside] |  |  |  |  |  |  |  |  | Manner of inhibition of yeast α-glucosidase [9]: non-competitive
